Assay results taken from patent US20090297645A1, “Fibroblast Activator and Method of Activating Fibroblast, Collagen Synthesis Promoter and Method of Promoting Collagen Synthesis, and Skin Antiaging Agent and Method of Preventing Aging of Skin” (priority 2005, published 2009).

What was measured:
Normal human fibroblasts [1] = assay: Test of fibroblast activation function (MTT formazan); type: cell-based; settings: positive control, DMEM containing 5 percent FBS, 48 hours, control = 100, n = 5
Description: 3-(4,5-Dimethyl-2-thiazolyl)-2,5-diphenyl-2H-tetrazolium […] (MTT) cleaves NADPH or NADH produced in energy metabolic processes in mitochondria within cells to produce formazan. Thus, the quantity of formazan produced was adopted as an indicator of cell activation function.
Normal human fibroblasts were seeded onto a 96-well microplate at a cell density of 3.0×10^4 cells/well. After culturing for 24 hours in Dulbecco's modified eagle medium (DMEM) containing 1 percent fetal bovine serum (FBS), the medium was replaced with DMEM containing 1 percent FBS containing a freeze-dried product of grape sap in the concentration shown in Table 1. A positive control (PC) in the form of DMEM containing 5 percent FBS was employed. […]
The cells were washed, the formazan produced in the cells was dissolved in 2-propanol, and a microplate reader was employed to measure the absorbance at 550 nm and 650 nm. The difference between the two was calculated to evaluate the quantity of formazan generated within the cells. Cell activation function was denoted by an activation index (%) with the absorbance (ABS.) of cultivated cells to which no sample was added (control) being denoted as 100. […] The p value was determined to be significant when p<0.05.

Normal human fibroblasts [2] = assay: Test of collagen synthesis promoting function of fibroblasts (type I collagen ELISA, BCA protein); type: cell-based; settings: positive control, concentration not given, 48 hours
Description: The collagen synthesis of fibroblasts was evaluated by quantifying the amount of secreted type I collagen in culture supernatant by ELISA.
Normal human fibroblasts were seeded onto a 96-well microplate at a cell density of 3.0×10^4 cells/well. After culturing for 24 hours in DMEM containing 0.5 percent FBS, the medium was replaced with DMEM containing 0.5 percent FBS containing a freeze-dried product of grape sap in the concentration shown in Table 2. A PC in the form of magnesium ascorbyl phosphate (VCPMg) was employed. After 48 hours, the culture supernatant was collected and the amount of type I collagen was quantified by ELISA.
Culture supernatant and calibration curve-use type I collagen were placed in a 96-well plate and coated overnight at 4° C. […] Twenty minutes later, a microplate reader was employed to measure the absorbance at 405 nm. The quantity of collagen in the culture supernatant was calculated from a calibration curve measured with the same plate.
At the same time, the quantity of cell protein was quantified using BCA protein assay reagent (PIERCE). The quantity of collagen in the culture supernatant was divided by the quantity of protein to calculate the quantity of collagen per unit of protein, which was adopted as the quantity of collagen synthesized by the cells. […] The p value was determined to be significant when p<0.05. […]

O=C1O[C@H]([C@@H](O)CO)C([O-])=C1OP(=O)([O-])[O-].O=C1O[C@H]([C@@H](O)CO)C([O-])=C1OP(=O)([O-])[O-].[Mg+2].[Mg+2].[Mg+2] [PC, magnesium ascorbyl phosphate]
Activation index (%) Mean ± SD (Normal human fibroblasts [1]): 116.0 ± 2.9% | Collagen amount (ng/μg protein) Mean ± SD (Normal human fibroblasts [2]): 32.9 ± 4.8 ng/μg protein | Protein amount (μg) Mean ± SD (Normal human fibroblasts [2]): 11.2 ± 0.2 µg
